The source of these data is patent US6811998B2, “Conjugates of uncompetitive inhibitors of inosine monophosphate dehydrogenase” (priority 1999, dated 2004).

Assay [1] addresses T1, IMPDH II (Homo sapiens, UniProt P12268). The assay is described as follows: IC50 by slightly different method: enzyme rate on HITACHI 917 as in Examples 20 and 29, no antibody, saline sample. Type of assay: biochemical. More on the design: made in house; host or cells: E. coli. As to conditions: values marked *: HITACHI 917 method. The protocol: One liter of an enzyme reagent, or second reagent, was prepared as follows. Approximately 800 ml deionized water was dispensed into a container and 168.8 grams of NaTAPSO was added and completely dissolved. Next, 1.15 grams of TCEP was dissolved. Next 31.4 grams of IMP was dissolved, then 2.23 grams of Na2EDTA were dissolved. Next 1.0 gram of SUTTOCIDE A was dissolved. The volume was adjusted to one liter with deionized water. Enough recombinant human IMPDH-II was added (as a 35% ammonium sulfate precipitate of an E. coli lysate supernatant) and dissolved completely in order to achieve a change in absorbance at 340 nm of 780×10^−4 over 5 minutes at 37° C. […]
(§1) An HITACHI 917 analyzer (Roche Diagnostics Corp., Indianapolis) was programmed to dispense 3 μl of sample and 150 μl of antibody reagent into a 37° C. cuvette, which were then mixed and incubated for 5 minutes after which time 150 μl of enzyme reagent was added and mixed. The rate at 340 nm (mA/min) was calculated during the period 3 minutes 13 seconds to 4 minutes 42 seconds (read window 29-34) following enzyme reagent addition.
One liter of a second reagent was prepared as follows. […] Enough recombinant human IMPDH-II was added (as a 35% ammonium sulfate precipitate of an E. coli lysate supernatant) and dissolved completely in order to achieve a change in absorbance at 340 nm of 3100×10^−4 over 5 minutes at 37° C. […]

Assay [2] concerns the target T1, IMPDH II. Kind of assay: Inhibition constants of ligand inhibitors: NADH formation at 340 nm, 10 minutes, 40° C. The note with it: IMPDH II 0.00065 U/ml, non-linear curve fit. The class given is biochemical.
For assay [3], the target named is T1, IMPDH II. Kind of assay: Homogeneous enzyme immunoassay with ligand-inhibitor conjugate (thyroxine and theophylline). The class given is biochemical. More on the design: made in house; host or cells: E. coli. As to conditions: compared with MPA-theophylline. Here is the method: as §1
Saline samples spiked with theophylline were assayed using the method of the present invention. Theophylline (Sigma Chemical) was first dissolved in saline (1 mg/10 ml) and then diluted to achieve concentrations of 0, 5, 10, 20, 40 and 50 μg/ml. An HITACHI 717 analyzer (Roche Diagnostics Corp., Indianapolis) was programmed to dispense 3 μl of sample and 150 μl of first reagent into a 37° C. cuvette, which were then mixed and incubated for 5 minutes, after which time 150 μl of second reagent was added and mixed. The difference in absorbance at 340 nm was calculated from the initial addition of the second reagent to 5 minutes following the second reagent addition.
J. Org. Chem. 61, 2236-2241, (1996).

The target of assay [4] is T1, IMPDH II. Kind of assay: IMPDH activity as a function of ligand-inhibitor conjugate, antibody and analyte concentration (HITACHI 717, NADH at 340 nm). The class given is biochemical. The arrangement: made in house; host or cells: E. coli. The protocol: One liter of an antibody reagent, or first reagent, was prepared as follows. Approximately 800 ml deionized water was dispensed into a container and 6.0 grams of ACES were added and dissolved. The pH was adjusted to 6.0 with 2N NaOH. Then 0.53 grams NAD were added and dissolved completely. Next 10 ml ascites anti-MPA monoclonal antibody was added. Then 0.95 grams sodium azide was added and dissolved, and finally 1.0 gram of SUTTOCIDE A (GAF Chemicals Corp.) was added and dissolved. The volume was adjusted to one liter with deionized water.
One liter of an enzyme reagent, or second reagent, was prepared as follows. Approximately 800 ml deionized water was dispensed into a container and 56.3 grams of NaTAPSO was added and completely dissolved. Then 81.6 grams of sodium acetate-3H2O were added and dissolved. Next, 1.15 grams of TCEP were added and dissolved. Next 0.319 grams of IMP were added and dissolved, then 2.23 grams of Na2EDTA were added and dissolved. Next 1.0 gram of SUTTOCIDE A was added and dissolved. The volume was adjusted to one liter with deionized water. Approximately 13.4 ml of recombinant human IMPDH-II were added (E. coli lysate) and dissolved completely in order to achieve a change in absorbance at 340 nm of 4400×10^−4 over 5 minutes at 37° C. Next 0.002 grams of ligand-inhibitor conjugate (MPA-MPA, Example 42) were added and dissolved.
Human plasma samples spiked with mycophenolic acid were assayed for MPA using the present invention. An HITACHI 717 analyzer (Roche Diagnostics Corp. Indianapolis) was programmed to dispense 3 μl of sample and 150 μl of antibody reagent into a 37° C. cuvette, which were then mixed and incubated for 5 minutes after which time 150 μl of enzyme reagent was added and mixed. The difference in absorbance at 340 nm was calculated from the initial addition of enzyme reagent to 5 minutes following enzyme reagent addition.
With sample set A, the reagents contained no antibody or ligand-inhibitor and produced maximum IMPDH activity. With sample set B, the enzyme reagent contained ligand inhibitor and was used to show the effect of ligand inhibitor on IMPDH activity.

In another assay the target is IMPDH-I (Homo sapiens, UniProt P20839). As to conditions: read-out: Ki (IC50), J. Biol. Chem. 268, 27286-27290 (1993); cited from earlier work.
The subject of another assay is IMPDH. The assay is described as follows: Sensitivity of mycophenolic acid inhibition of IMPDH. Type of assay: biochemical.

pIC50, pKi: −log10 of the molar value.

IMPDH-I, sequence (P20839 whole entry): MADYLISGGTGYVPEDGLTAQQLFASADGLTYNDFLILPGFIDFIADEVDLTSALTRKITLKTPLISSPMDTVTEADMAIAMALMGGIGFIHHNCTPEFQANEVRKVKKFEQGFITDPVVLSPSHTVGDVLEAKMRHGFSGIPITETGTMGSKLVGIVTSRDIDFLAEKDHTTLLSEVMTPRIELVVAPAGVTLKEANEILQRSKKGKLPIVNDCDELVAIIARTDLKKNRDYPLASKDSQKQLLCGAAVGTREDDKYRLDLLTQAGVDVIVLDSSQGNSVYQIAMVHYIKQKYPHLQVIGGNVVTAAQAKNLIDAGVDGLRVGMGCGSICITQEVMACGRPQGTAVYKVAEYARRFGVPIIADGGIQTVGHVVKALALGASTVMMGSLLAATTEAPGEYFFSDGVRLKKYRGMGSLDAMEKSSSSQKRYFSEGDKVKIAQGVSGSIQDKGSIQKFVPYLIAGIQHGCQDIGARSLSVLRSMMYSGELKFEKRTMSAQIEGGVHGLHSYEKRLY

As for “5′-[(theophylline-8-butyramidoethylaminocarbonyloxy)-isoprenyl]-MPA [compound 20]”, at IMPDH II [1], the pIC50 was 6.60. As to “5′-(digoxigenin-3-yl-β-amidomethyl)-MPA [16A]”, on IMPDH II [2], the pIC50 was 6.77.

The molecule “5′-[(phenytoin-3-butyramido)-isoprenyl]-MPA” showed a negative logarithm of the IC50 (pIC50) against IMPDH II [2] of 7.06. With “5′-[(isoprenyloxycarbonylaminoethyleneamido)-thyroxine]-MPA [compound 11]”, on IMPDH II [3], the “sensitivity in an immunoassay” value is on record as “greater sensitivity”. At IMPDH II [1], this molecule showed a pIC50 of 7.08. Regarding “5′-(digoxigenin-3-yl-β-amidomethyl)-MPA [16B]”, on IMPDH II [2], the pIC50 was 7.17.

On IMPDH II [2], “5′-[(gentamicin[C1a]-N^1-terephthaloyl)-amino-isoprenyl]-MPA [U]” gave a pIC50 of 6.57. Compared with the last molecule, the pIC50 is 0.60 log units lower.

For the molecule “5′-[(digoxigenin-3-yl)-oxymethylcarbonyl-DADOO-carbonylmethyl]-MPA [compound 26]”, the pIC50 against IMPDH II [2] is 6.77. MPA-isoprenyl alcohol [3B]: on IMPDH II [2], the pIC50 is 7.89. Same read-out and setting: the value for “5′-[(gentamicin[C1a]-N^1-carbonyl-oxy)-isoprenyl]-MPA” was 6.18. MPA-isoprenyl alcohol [3A] showed a pIC50 on IMPDH II [2] of 7.32. Compared with the last molecule, the pIC50 is 1.14 log units higher.

As for `COc1c(C)c2c(c(O)c1C/C=C(\C)CCC(=O)O)C(=O)OC2` [MPA, mycophenolic acid], the “ΔA × 10^−4 @ 340 nm” value is 1939 × 10^−4 at IMPDH II [4] (set A: sample MPA 5 μg/ml, no anti-MPA, no MPA—MPA); 541 × 10^−4 at IMPDH II [4] (set A: sample MPA 10 μg/ml, no anti-MPA, no MPA—MPA); 4075 × 10^−4 on IMPDH II [4] (set E: sample MPA 5 μg/ml, anti-MPA 1:100, no MPA—MPA); 3667 × 10^−4 on IMPDH II [4] (set E: sample MPA 10 μg/ml, anti-MPA 1:100, no MPA—MPA). Further, the pKi at IMPDH-I is 7.43. The “sensitivity of mycophenolic acid inhibition” value in the assay on IMPDH lay in the range of 10 to 20 nM.
